The source of these data is PMC12298827, “Subchronic Toxicities of Four Per- and Polyfluoroalkyl Substances (PFASs) by Oral Exposure in Sprague–Dawley Rats” (Toxics, 2025).

Data set [1] in a line: Parent chemical in rat plasma, 90-day study. The data set is classed as in vivo. Conditions: for concentration at 91 day: Sprague-Dawley, rat, plasma, oral; for Percentage of the dose in the plasma: 90 days. The protocol: Subchronic (90-day) studies were performed in accordance with current U.S. EPA’s Toxic Substances Control Act Good Laboratory Practice (GLP) Standards, with the following two general exceptions to the GLP guidelines: Analysis of the dose formulations was conducted according to RTI-approved Standard Operating Procedures, and corn oil (the vehicle) was not characterized (certificate of analysis from the vendor is available in the appendices to the final reports). Male and female Sprague–Dawley rats (five dose levels plus a control, n = 10/sex/dose group, corn oil vehicle dose volume of 3 mL/kg; oral gavage) were used in these studies, and the rats were euthanized on SD 91. The dose levels for PFHI were 0, 12.5, 25, 50, 100, and 200 mg/kg-day. The dose levels for MHFPK were 0, 18.8, 37.5, 75, 150, and 300 mg/kg-day. The dose levels for PFNAC were 0, 0.1, 0.3, 1.0, 3.0, and 10 mg/kg-day for male rats and 0, 0.3, 1.0, 3.0, 10, and 30 mg/kg-day for female rats. For CTFPA, the dose levels were 0, 1.9, 3.8. 7.5, 15, and 30 mg/kg-day for male rats and 0, 6.3, 12.5, 25, 50, and 100 mg/kg-day for female rats. For each PFAS, three batches of dosing solution were prepared. The time between the batch preparation of the dosing solutions ranged between 29 and 39 days. Blood samples were collected from all the rats at termination for serum chemistry, hematology, coagulation, and the analysis of the parent PFAS chemical in the plasma. In vivo data collection and further detail on the endpoints examined postmortem are described below.
On SD 1 of the 14-day study (~2 h post dosing), 0.2 mL of blood was collected via tail vein puncture in tubes containing K3EDTA and stored on wet ice. Prior to the scheduled euthanasia, blood (~1 mL) was collected from the jugular vein in tubes containing K3EDTA and stored on wet ice on SD 15, for the 14-day study, and SD 91, for the 90-day study. All the tubes were centrifuged at an ~1500 relative centrifugal force within 1 h of collection for 15 min at 5 ± 3 °C. The plasma was stored at −75 ± 15 °C until the analysis. PFNAC and PFHI were analyzed using a headspace GC–mass spectrometry (MS) method, as summarized in Table S3, and CTFPA was analyzed using an ultra-HPLC-MS method, as summarized in Table S4. The MHFPK samples were not analyzed because a method suitable for plasma was not available. The details concerning the preparation of the samples, method blanks, and matrix and QC standards for the analysis are available in the appendices to the study reports.

Another data set has as its system male and female SD rats. As to the kind of experiment: 14-day dose-range-finding oral gavage study. Conditions: both sexes, all doses. The data set is classed as in vivo, rat. The protocol:
Dose-range-finding (14-day) studies were conducted using male and female rats to establish dose levels for 90-day studies and identify potential target organ toxicities. Male and female rats (n = 5 sex/group, a control and three dose groups, corn oil vehicle dose volume of 5 mL/kg) were administered PFASs by oral gavage daily for 14 days and euthanized on study day (SD) 15. The dose levels for PFHI, CTFPA, and MHFPK were 0, 30, 100, and 300 mg/kg-day. The dose levels for PFNAC were 0, 10, 30, and 100 mg/kg-day. The in vivo data collected included BW, BWCs, FC, cage-side observations, and physical exams. Gross necropsies, relative and absolute organ weights, and clinical chemistry data were collected for all the groups. Macroscopic and microscopic pathology examinations were conducted for the control and high-dose groups initially; the other groups were examined if justified by experimental findings. Plasma samples were analyzed ~2 h post dosing on day 1 and at day 15 for the parent PFAS chemical.
Neurotoxicity was evaluated using the functional observational battery (FOB) and measuring locomotor activity (LMA) 2–4 h post dosing on SDs 78–80 and 80–84, respectively. For both the 14- and 90-day studies, an ophthalmologic examination was conducted prior to randomization and near the end of the study, using indirect ophthalmoscopy and slit–lamp biomicroscopy (as needed) after the administration of a mydriatic solution.
Hematology, biochemistry, and coagulation endpoints were measured at the termination of the study. A Siemens Advia 2120i hematology analyzer (Siemens Healthineers, Erlangen, Germany) was used to measure (or calculate) the parameters related to the complete blood count, leukocyte differential count, and reticulocyte count. The hematology parameters are listed and described in Table 2. The prothrombin time […] and activated partial thromboplastin time (APTT) were measured using an Instrumentation Laboratory (Bedford, MA, USA) ACL Elite Pro coagulation analyzer (laser–nephelometric centrifugal method).
At necropsy, the rats were visually examined for external abnormalities and organ weights (absolute and relative to the BW and brain weight), which were recorded (paired organs weighed together). The tissues were preserved in 10% neutral buffered formalin (NBF), except for the ocular tissues, testes, and epididymides, which were preserved in modified Davidson’s fixative and later transferred to 10% NBF. Bone marrow smears were prepared from the femurs, and the slides were air-dried, fixed in methanol, stained, and stored at room temperature for possible future evaluation. The preserved tissues were embedded in paraffin, sectioned, stained with hematoxylin and eosin, and examined by a board-certified veterinary pathologist.

Another data set has as its system male SD rats. As to the kind of experiment: Single-dose tolerability study, oral gavage. Format: in vivo, rat. As to conditions: single oral dose in corn oil, n = 3/dose. As to the method:
Tolerability, 14-day dose-range-finding, and 90-day subchronic toxicity studies were conducted at Inotiv (Gaithersburg, MD, USA), monitored by the Research Triangle Institute (RTI) (Durham, NC, USA) and sponsored and funded by the EPA. Tolerability studies used four PFAS dose levels plus a control, with the high doses not to exceed 1000 mg/kg (subject to solubility in corn oil, dose volume of 5 or 10 mL/kg) and lower doses separated by threefold spacing. The dose levels for PFHI, MHFPK, and CTFPA were […]. The dose levels for PFNAC were 0, 25, 75, 225, and 667 mg/kg. Tolerability was studied using male rats (n = 3 rats/group) that received a single dose by oral gavage. The rats were euthanized at 48 hours post dosing. The data collected were bodyweight (BW) and BW changes (BWCs), feed consumption (FC) and water consumption (WC), cage-side observations, and physical exams; no necropsies were performed.

For `O=C(O)C(F)(Cl)C(F)(F)F` (centres unmarked) [CTFPA, 2-Chloro-2,3,3,3-tetrafluoropropanoic acid], in data set [1] (female, Day 91, 6.3 mg/kg-day), the concentration at 91 day stood at 12600 ng/mL. The concentration at 91 day in data set [1] (female, Day 91, 12.5 mg/kg-day) was 24700 ng/mL. Also, the concentration at 91 day in data set [1] (female, Day 91, 25 mg/kg-day) amounted to 51000 ng/mL. Besides, the concentration at 91 day in data set [1] (female, Day 91, 50 mg/kg-day) was determined as 71500 ng/mL. In data set [1] (female, Day 91, 100 mg/kg-day), the concentration at 91 day was 116000 ng/mL. In addition, the concentration at 91 day in data set [1] (male, Day 91, 1.9 mg/kg-day) was determined as 12600 ng/mL. Also, the concentration at 91 day in data set [1] (male, Day 91, 3.8 mg/kg-day) was determined as 22300 ng/mL. Further, the concentration at 91 day in data set [1] (male, Day 91, 7.5 mg/kg-day) was found to be 43300 ng/mL. Further, the concentration at 91 day in data set [1] (male, Day 91, 15 mg/kg-day) is 62100 ng/mL. Besides, the concentration at 91 day in data set [1] (male, Day 91, 30 mg/kg-day) was determined as 84400 ng/mL. The “Percentage of the dose in the plasma” value in data set [1] (female, 100 mg/kg-day) is given as 4.48 ± 1.63%. Moreover, the “Percentage of the dose in the plasma” value in data set [1] (male, 30 mg/kg-day) was found to be 10.82 ± 2.76%. For the same compound, in the data set on male and female SD rats, the “Bodyweight and bodyweight gain” value was “No changes”; the Clinical chemistry entry is “Females: mild increases in albumin, A/G ratio and mild sporadic decreases in globulin and minimal increases in the total protein; males: minimal increases in calcium and from minimal to mild increases in BUN at all the dose levels. At 300 mg/kg-day, mild increases in ALPi”; the Clinical observations entry is reported as “None”; the Coagulation endpoints result is “No effects”. In addition, in the data set with male and female SD rats, the Feed consumption result is reported as “No effects”; the Gross lesions entry is reported as “None”; the Hematology result was “Mild increases in MPV in males at all the doses, not seen in females”; the Histopathology entry is “From minimal to moderate diffuse hepatocellular hypertrophy seen in the livers of males at ≥30 mg/kg-day (5/5 in all the groups, with severity increasing with dose) and females at ≥100 mg/kg-day (5/5 with, severity increasing with dose)”. For the same compound, in the data set with male and female SD rats, the Morbidity and mortality entry was “None”; the Ophthalmology entry was “No ocular lesions”; the Organ weight changes entry is given as “Females: liver at >100 mg/kg-day; males: liver, dose-dependent pattern in all the dose groups”. The Summary of observations result in the data set on male SD rats was “No mortality and no effect on absolute bodyweight gains or water consumption; clinical observations of low activity, decreased bodyweight and decreased feed consumption at high doses”.

As for `C=CC(=O)OCC(F)(F)C(F)(F)C(F)(F)C(F)(F)C(F)(F)C(F)(F)C(F)(F)C(F)F` [PFNAC, 1H,1H,9H-Perfluorononyl acrylate], in data set [1] (female, Day 91, highest dose 30 mg/kg-day), the “Parent chemical in plasma” value is “Parent chemical not detected at the highest dose”. In addition, the “Parent chemical in plasma” value in data set [1] (male, Day 91, highest dose 10 mg/kg-day) was “Parent chemical not detected at the highest dose”. Also, in the data set on male and female SD rats, the “Bodyweight and bodyweight gain” value is given as “No changes”; the Clinical chemistry result is “From mild to moderate decreases in mean cholesterol levels in males at all the dose levels and in females at 30 and 100 mg/kg-day, with from mild to moderate increases in triglycerides in both sexes at 100 mg/kg-day and in females at 30 mg/kg-day”; the Clinical observations entry is given as “None”; the Coagulation endpoints entry is “No effects”. Also, in the data set with male and female SD rats, the Feed consumption result is recorded as “No effects”; the Gross lesions result is “None”; the Hematology result is on record as “No effects considered as chemical related”; the Histopathology result is “From minimal to moderate liver hypertrophy in males only in 2/5, 3/5, and 4/4 at doses of 10, 30, and 100 mg/kg-day, respectively”. Besides, in the data set on male and female SD rats, the Morbidity and mortality result is “None”; the Ophthalmology result is on record as “No ocular lesions”; the Organ weight changes result was “Dose-proportional increases in absolute and relative liver weights in all exposed males and females”. Besides, the Summary of observations result with male SD rats was “No mortality and no abnormal clinical observations, some lowering of bodyweight, bodyweight changes, and feed consumption in all the treated groups not reaching statistical significance”.
